Reference: ChEMBL document CHEMBL1921675, “Synthesis and cytotoxic evaluation of novel paraconic acid analogs” (Bioorg Med Chem Lett, 2011)

What was measured:
[1] = system: HCT-116; experiment: Antiproliferative activity against human HCT116 cells assessed as cellular growth inhibition at 10 uM after 72 hrs by MTS assay; type: functional; details: HCT-116, 72 h, read-out: GI
[2] = system: KB; experiment: Antiproliferative activity against human KB cells assessed as cellular growth inhibition at 10 uM after 72 hrs by MTS assay; type: functional; details: read-out: GI
[3] = system: MCF7; experiment: Antiproliferative activity against human MCF7 cells assessed as cellular growth inhibition at 10 uM after 72 hrs by MTS assay; type: functional; details: MCF7, 72 h, read-out: GI
[4] = system: HL-60; experiment: Antiproliferative activity against human HL60 cells assessed as cellular growth inhibition at 10 uM after 72 hrs by MTS assay; type: functional; details: HL-60, 72 h, read-out: GI
[5] = system: SK-OV-3; experiment: Antiproliferative activity against human SKOV3 cells assessed as cellular growth inhibition at 10 uM after 72 hrs by MTS assay; type: functional; details: SK-OV-3, 72 h, read-out: GI
[6] = system: MCF7; experiment: Antiproliferative activity against human MCF7 cells after 72 hrs by MTS assay; type: functional, cell-based; details: MCF7, 72 h
[7] = Antiproliferative activity against human HL60R cells assessed as cellular growth inhibition at 10 uM after 72 hrs by MTS assay; type: functional; details: read-out: GI
[8] = system: HL-60; experiment: Antiproliferative activity against human HL60 cells after 72 hrs by MTS assay; type: functional, cell-based; details: HL-60, 72 h
[9] = system: KB; experiment: Antiproliferative activity against human KB cells after 72 hrs by MTS assay; type: functional, cell-based
[10] = system: HCT-116; experiment: Antiproliferative activity against human HCT116 cells after 72 hrs by MTS assay; type: functional, cell-based; details: HCT-116, 72 h
[11] = system: PC-3; experiment: Antiproliferative activity against human PC3 cells assessed as cellular growth inhibition at 10 uM after 72 hrs by MTS assay; type: functional; details: PC-3, 72 h, read-out: GI
[12] = Antiproliferative activity against human MCF7/R cells assessed as cellular growth inhibition at 10 uM after 72 hrs by MTS assay; type: functional; details: MCF7R, read-out: GI

| IC50 [6] | IC50 [8] | IC50 [9] | IC50 [10] | Compound | inhibition of growth at 10 µM [1] | inhibition of growth at 10 µM [2] | inhibition of growth at 10 µM [3] | inhibition of growth at 10 µM [4] | inhibition of growth at 10 µM [5] | inhibition of growth at 10 µM [7] | inhibition of growth at 10 µM [11] | inhibition of growth at 10 µM [12] |
| --- | --- | --- | --- | --- | --- | --- | --- | --- | --- | --- | --- | --- |
|  |  |  |  | COC(=O)[C@@]1(Cc2ccc(OC)cc2)CC(=O)O[C@]1(C)c1ccccc1 | 56% | 98% | 59% | 68% |  |  |  |  |
|  |  |  |  | COC(=O)C1(Cc2ccccc2)CC(=O)OC1c1ccccc1 (mixture of isomers) | 0% | 18% | 0% | 22% |  |  |  |  |
|  |  |  |  | COC(=O)C1(Cc2ccc(OC)cc2)CC(=O)OC1c1ccccc1 (mixture of isomers) | 4% | 19% | 0% | 15% |  |  |  |  |
|  |  |  |  | COC(=O)c1ccc(CC2(C(=O)OC)CC(=O)OC2c2ccccc2)cc1 (mixture of isomers) | 0% | 12% | 0% | 19% |  |  |  |  |
|  |  |  |  | COC(=O)C1(Cc2cccc(C(F)(F)F)c2)CC(=O)OC1c1ccccc1 (mixture of isomers) | 14% | 39% | 11% | 34% |  |  |  |  |
|  |  |  |  | COC(=O)C1(Cc2ccc3c(c2)OCO3)CC(=O)OC1c1ccccc1 (mixture of isomers) | 18% | 0% | 11% | 18% |  |  |  |  |
|  |  |  |  | COC(=O)C1(Cc2ccc(OC)cc2)CC(=O)OC1c1ccccc1C(F)(F)F (mixture of isomers) | 0% | 31% | 0% | 23% |  |  |  |  |
|  |  |  |  | COC(=O)C1(Cc2ccc(OC)cc2)CC(=O)OC1c1ccc(C(F)(F)F)cc1 (mixture of isomers) | 0% | 0% | 4% | 2% |  |  |  |  |
|  |  |  |  | COC(=O)C1(Cc2ccc(OC)cc2)CC(=O)OC1c1ccc(F)cc1 (mixture of isomers) | 0% | 33% | 4% | 37% |  |  |  |  |
|  |  |  |  | COC(=O)C1(Cc2ccc(OC)cc2)CC(=O)OC1c1ccco1 (mixture of isomers) | 0% | 32% | 0% | 29% |  |  |  |  |
|  |  |  |  | CCCCCCC1OC(=O)CC1(Cc1ccc(OC)cc1)C(=O)OC (mixture of isomers) | 12% | 13% | 28% | 8% |  |  |  |  |
|  |  |  |  | COC(=O)C1(Cc2ccccc2)CC(=O)OC1(C)c1ccccc1 (mixture of isomers) | 9% | 6% | 13% | 22% |  |  |  |  |
| 2.76 µM | 0.87 µM | 0.59 µM | 1.35 µM | COC(=O)C1(Cc2ccc(OC)cc2)CC(=O)OC1(C)c1ccccc1 (mixture of isomers) | 61% | 95% | 56% | 82% | 76% | 92% | 68% | 82% |
|  |  |  |  | COC(=O)C1(Cc2cccc(C(F)(F)F)c2)CC(=O)OC1(C)c1ccccc1 (mixture of isomers) | 22% | 21% | 20% | 21% |  |  |  |  |
|  |  |  |  | COC(=O)C1(Cc2ccc(OC)cc2)CC(=O)OC1(C)c1cccc(C(F)(F)F)c1 (mixture of isomers) | 30% | 38% | 46% | 52% |  |  |  |  |
|  |  |  |  | CCC1(c2ccccc2)OC(=O)CC1(Cc1ccc(OC)cc1)C(=O)OC (mixture of isomers) | 28% | 11% | 21% | 30% |  |  |  |  |
|  |  |  |  | COC(=O)C1(Cc2ccc(OC)cc2)CC(=O)OC1(c1ccccc1)C(F)(F)F (mixture of isomers) | 20% | 56% | 8% | 64% |  |  |  |  |
|  |  |  |  | COC(=O)C1(Cc2ccccc2)CC(=O)OC12CCCCC2 (racemic) | 0% | 7% | 1% | 4% |  |  |  |  |
